# Key:
# ESR1 = biological target: T1, ESR1 (Homo sapiens, UniProt P03372); test: ESR1 expression in LTED MCF7 cells (immunoblot); format: cell-based; conditions: 24 hours, SERDs 10^-6 M
# T1 sequence (P03372 1-595): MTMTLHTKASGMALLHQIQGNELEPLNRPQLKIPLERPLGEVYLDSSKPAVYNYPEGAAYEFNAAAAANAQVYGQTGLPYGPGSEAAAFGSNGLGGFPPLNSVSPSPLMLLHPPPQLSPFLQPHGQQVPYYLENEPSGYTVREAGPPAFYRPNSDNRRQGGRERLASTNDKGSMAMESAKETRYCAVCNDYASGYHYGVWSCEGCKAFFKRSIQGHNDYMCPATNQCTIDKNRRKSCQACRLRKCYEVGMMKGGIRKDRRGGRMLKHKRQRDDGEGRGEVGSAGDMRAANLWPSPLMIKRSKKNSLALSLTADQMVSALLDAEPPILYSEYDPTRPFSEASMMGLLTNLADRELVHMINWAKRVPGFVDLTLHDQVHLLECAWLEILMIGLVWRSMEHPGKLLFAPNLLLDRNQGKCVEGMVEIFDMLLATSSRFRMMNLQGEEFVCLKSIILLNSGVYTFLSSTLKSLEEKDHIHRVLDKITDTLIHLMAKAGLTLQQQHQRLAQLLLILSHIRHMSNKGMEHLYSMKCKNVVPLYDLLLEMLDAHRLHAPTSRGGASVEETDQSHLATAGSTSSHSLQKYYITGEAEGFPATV
# Method: MCF7 and SKBR3 cell lines were maintained in DMEM/F12 or RPMI media (Invitrogen), respectively, supplemented with 8% fetal bovine serum (FBS, Gemini), non-essential amino acids (Invitrogen), and sodium pyruvate (Invitrogen). Unless otherwise indicated, cells were plated for experiments in media lacking phenol red and supplemented with 8% charcoal stripped FBS (CFS, Gemini). LTED MCF7 cells were maintained and plated for experiments in phenol red free DMEM/F12 media supplemented with 8% CFS that had been charcoal stripped twice. 48 hours after plating, cells were treated with ESR1 ligands as indicated, and were harvested for immunoblot or real time quantitative PCR analysis 24 hours after treatment.
# Expression of ESR1 and loading control cytokeratin 18 (CK18—FIG. 7A) in whole cell extracts were detected by immunoblot (top). ESR1 levels relative to CK18 were quantitated by densitometry using Adobe Photoshop (bottom). […] ESR1 expression was detected as in FIG. 6A. For FIGS. 6C-6D, LTED MCF7 cells were plated in phenol red free media supplemented with FBS that was stripped of growth factors twice using charcoal. For FIG. 6C, after 48 hours, cells were treated for 24 hours with E2 (10^−7 M) or SERDs (10^−6 M) and ESR1 was analyzed as in FIG. 6A.
# LTED MCF7 cells = test: LTED MCF7 cell proliferation assay; format: cell-based; conditions: model of aromatase resistance, 10^-11-10^-6 M, 8 day assay
# MCF7 cells = test: MCF7 proliferation in response to E2 or insulin; format: cell-based; conditions: SERMs and SERDs 10^-6 M, insulin 2×10^-9 M
# Method: The expression of ESR1 target genes responsive to (FIG. 10A) agonists, (FIG. 10B) primarily SERMs, or (FIG. 10C) SERMs and agonists was analyzed as in FIG. 5. Relative changes of these and additional target genes designed to evaluate dose dependent response to RAD1901 are presented in FIG. 11. Significant target gene regulation (*p<0.05) as compared to the vehicle control was detected by 2 way ANOVA followed by Fisher's LSD (Graphpad Prism 6). […] Triplicate wells of SKBR3 cells were transfected with plasmids expressing ESR1 fused to VP16 together with Gal4DBD alone (control) or Gal4DBD fused to ESR1 interacting peptides noted on the horizontal axis. Cells were then treated with the indicated ESR1 ligands (10^−7 M unless otherwise indicated). Interaction of ESR1 with the Gal4DBD peptide constructs was detected through activation of a Gal4-responsive luciferase reporter construct and was normalized to detected β-galactosidase activity expressed in a constitutive manner using a second vector. Normalized response was expressed as fold increase over the detected level of interaction between Gal4DBD alone and ESR1-VP16 in the absence of ligand (Veh). For FIG. 10E, the effect of SERMs and SERDs (10^−6 M) on the proliferation of MCF7 cells in response to E2 (10^−9 M) or insulin (2×10^−9 M) was evaluated as in FIG. 5. Statistically similar treatments (2-way ANOVA followed by Bonferroni comparison) are indicated by letters. […] The expression of ESR1 target genes responsive to (A) agonists, (B) primarily SERMs, or (C) SERMs and agonists was analyzed using RT qPCR following RNA isolation. mRNA expression was normalized (ΔΔCT analysis) to the similarly detected 36B4 housekeeping. The profiles presented in dendogram format were analyzed with the Ward hierarchical clustering algorithm (JMP 11) using standardized data.
# MCF7 xenograft tumors = test: MCF7 xenograft tumor study in estrogen-treated ovariectomized nu/nu mice; format: in vivo; conditions: 20 mg/kg sc daily
# Method: A total of 90 female Nu/Nu mice were ovariectomized and implanted subcutaneous simultaneously with an estrogen pellet (Innovative Research of America) releasing 0.72 mg estradiol (E2) over 60 days. 2 days later an approximately 6 mm^3 fragment of an MCF7 xenograft tumor (isolated from a recently sacrificed estrogen treated nu/nu mouse) was inserted subcutaneous into the axial mammary gland. Tumor growth (by caliper measurement) and animal body weight were monitored 3× weekly until tumor volume reached ˜0.2 cm^3. […] Treatments were formulated in sterile corn oil and were administered daily by subcutaneous injection. After 3 weeks of treatments, animals were euthanized and serum and tissues saved for analysis. FIG. 1B depicts tumor volume analyzed using non-linear curve fit and exponential growth calculation (Graphpad Prism), followed by two-way ANOVA and Bonferroni analysis.
# Xenograft tumor analysis: Estrogen-stimulated MCF7 tumors were initiated in the axial mammary gland of 6-week old estrogen-treated (0.72 mg/60 days pellet sc, Innovative Research of America) ovariectomized female NU/NU mice (in-house colony) by serial transfer and were measured as described (Wardell et al., (2013) Clin Cancer Res 19 (9):2420-2431). […] Animal tissues were processed and analyzed as described (Wardell et al., (2013) Clin Cancer Res 19 (9):2420-2431).
# The ability of RAD1901 (FIG. 5A) to modulate the […] estradiol (E2) dependent transcriptional activity of the human estrogen receptor alpha (ESR1) and human estrogen receptor beta (ESR2) was assessed in transiently transfected SKBR3 cells using a synthetic reporter gene. […] DNA content as assessed by fluorescence was measured as a surrogate for cell proliferation. The relative increase in DNA fluorescence was calculated by normalizing to baseline values detected in a duplicate plate of cells that was harvested on day 1 prior to the initial treatment. […] For FIG. 5F, expression of ESR1 target genes in tumors was analyzed essentially as in (C).
ESR1 expression levels (ESR1),Compound,cell proliferation (LTED MCF7 cells),insulin-stimulated proliferation (MCF7 cells),expression of ESR1-target genes PGR and FHL1 in treated tumors (MCF7 xenograft tumors)
downregulated ESR1 expression,"C[C@]12CC[C@@H]3c4ccc(O)cc4C[C@@H](CCCCCCCCC[S+]([O-])CCCC(F)(F)C(F)(F)F)[C@H]3[C@@H]1CC[C@@H]2O (stereo partly shown) [ICI, ICI 182,780]",inhibited cell proliferation,efficiently inhibited,–
–,"CC/C(=C(\c1ccccc1)c1ccc(OCCN(C)C)cc1)c1ccccc1 [tamoxifen, reference compound]",minimally effective,–,suppress the expression of the ESR1-target genes PGR and FHL1 to the same degree
–,"O=C(c1ccc(OCCN2CCCCC2)cc1)c1c(-c2ccc(O)cc2)sc2cc(O)ccc12 [Ralox, raloxifene]",–,without effect,–
–,4-hydroxytamoxifen [4OHT],–,without effect,–

# Source: US10420734B2, “Method of treating cancer using selective estrogen receptor modulators” (Duke University, priority 2014, dated 2019)
